Results: PMC5597684, “Prediction and in vitro verification of potential CTL epitopes conserved among PRRSV-2 strains” (Immunogenetics, 2017)
Like-named read-outs stand apart in the source and are kept apart here. Ends that are not written are not given here.

Legend:
SLA-1*04:01 [1] = target: T1, SLA-1*04:01 (Sus scrofa, UniProt O19244); test: pSLA binding affinity, modified ELISA; parameters: species or system swine
Description: (§1) Five SLA class I alleles were used: SLA-1*04:01, SLA-1*07:02, SLA-2*04:01, SLA-2*05:02 and SLA-3*04:01.
(§2) Based on the bioinformatics described above, 53 peptides (purity >85%, GenScript) were acquired for in vitro verification.
(§3) Binding affinity of pSLA complexes was determined in vitro using a modified enzyme-linked immunosorbent assay (ELISA) (Sylvester-Hvid et al. [2002]; Pedersen et al. [2011]). Briefly, 1–2 nM denatured biotinylated recombinant SLA heavy chains were refolded with 15 nM human β2m (hβ2m) and eight fivefold incremental concentrations of the peptide to be tested spanning from 0 to 13 μM. Following obtained equilibrium after two nights of incubation at RT, the samples were transferred to a streptavidin coated 96-well capture plate (436014, Thermo Scientific) for 1½ h of incubation. Mouse-anti-hβ2m, BBM1, and horseradish peroxidase-conjugated goat-anti-mouse IgG (A9917, Sigma-Aldrich) were used as primary and secondary detection antibodies, respectively. Washing steps were performed with 0.05% Tween 20 in PBS. The color reaction of TMB Plus2 (4395A, Kem-En-Tec Diagnostics) was stopped with equivalent amounts of H2SO4 (0.5 M, cat 30144.294, VWR International), and the plates were read at 450–650 nm using a Multiskan EX ELISA reader (Thermo). OD values were converted to measures of affinity (equilibrium dissociation constant, K D) using the prefolded biotinylated […]/HLA-A*02:01 as standard (Kast et al. [1994]), and were again converted to percentile rank scores by the same SLA-specific standard curves that are integrated in NetMHCpan. A minimum of two reliable measurements were aspired for each pSLA combination, and in most cases this was obtained. The results are presented as the range between the minimum and maximum measurements converted to rank scores.

SLA-2*04:01 [2] = target: T2, SLA-2*04:01 (Sus scrofa, UniProt Q8MHU4); test: pSLA binding affinity, modified ELISA; parameters: species or system swine
Description: as §1, §2, §3

SLA-1*04:01 [3] = target: T1, SLA-1*04:01; test: pSLA complex stability, scintillation proximity assay (125I-β2m dissociation); type: binding, swine; settings: SPA, 125I-β2m dissociation at 37 °C over 24 h with 200 nM unlabeled β2m, refolded overnight 18 °C with ≈50 μM peptide, average of duplicates, t½ in decimal hours
Description: as §1, §2
(§4) The stability of the pSLA complexes was determined in vitro using a scintillation proximity assay (SPA) employing the principle of ^125I-radiolabeled β2m dissociation as a measure of pSLA complex stability (Harndahl et al. [2011]; Parker et al. [1992b]). Briefly, denatured biotinylated recombinant SLA heavy chains were diluted in PBS/0.1% Lutrol F68 to 50 nM and refolded overnight at 18 °C with 2–10 nM ^125I-radiolabeled β2m and ≈50 μM of the peptide to be tested in streptavidin-coated scintillation 384-well FlashPlate PLUS microplates (SMP410A001PK, PerkinElmer). In case of a binding peptide, a scintillation signal was observed and the off-rate was subsequently determined by increasing the temperature to 37 °C and the addition of an excess of unlabeled β2m (final concentration 200 nM) while continuously monitoring the scintillation signal in a liquid microplate scintillation plate reader (Topcount NXT, PerkinElmer) for 24 h at 37 °C. The off-rate is equivalent to the peptide-specific dissociation rate and serves as a good measure for pSLA complex stability. The stability values reported are the averages of duplicates in half-life (t½) decimal hours.

SLA-2*04:01 [4] = target: T2, SLA-2*04:01; test: as above; type: binding, swine; settings: SPA, 125I-β2m dissociation at 37 °C over 24 h with 200 nM unlabeled β2m, refolded overnight 18 °C with ≈50 μM peptide, average of duplicates, t½ in decimal hours
Description: as §1, §2, §4

SLA-1*07:02 = test: as above; type: binding, swine; settings: SPA, 125I-β2m dissociation at 37 °C over 24 h with 200 nM unlabeled β2m, refolded overnight 18 °C with ≈50 μM peptide, average of duplicates, t½ in decimal hours
Description: as §1, §2, §4

[5] = ELISA as above, only one successful affinity measurement, read-out: Aff. (nM), measured affinity (equilibrium dissociation constant)
[6] = ELISA, 1–2 nM heavy chain, 15 nM hβ2m, peptide 0 to 13 μM, two nights at RT, average of successful measurements, read-out: Aff. (nM), measured affinity (average equilibrium dissociation constant)

ALATAPDGTY [ID46]
Kd (SLA-1*04:01 [1]; [5]): 607 nM

ASDWFAPRY [ID25]
Kd (SLA-1*04:01 [1]; [6]): 2 nM

ASYVWVPLTW [ID20]
Kd (SLA-2*04:01 [2]; [6]): 17100 nM

ATQEWLSRMW [ID31]
Kd (SLA-2*04:01 [2]; [5]): 50000 nM

FTWYQLASY [ID13]
Kd (SLA-1*04:01 [1]; [5]): 92 nM
Kd (SLA-2*04:01 [2]; [6]): 2 nM

FVLSWLTPW [ID28]
Kd (SLA-2*04:01 [2]; [6]): 3 nM

GGNWFHLEW [ID8]
Kd (SLA-2*04:01 [2]; [6]): 16600 nM

KIFRFGSHKW [ID22]
Kd (SLA-2*04:01 [2]; [5]): 9 nM

KSGHPHGLLF [ID6]
Stab. (h), measured stability (average dissociation half-life) (SLA-1*04:01 [3]): 0.1 h

KVAHNLGFY [ID21]
Kd (SLA-1*04:01 [1]; [6]): 4 nM

KVAHNLGFYF [ID10]
Kd (SLA-1*04:01 [1]; [6]): 122 nM

LSASSQTEY [ID38]
Kd (SLA-1*04:01 [1]; [5]): 91 nM

LSDSGRISY [ID19]
Kd (SLA-1*04:01 [1]; [6]): 10 nM
Kd (SLA-2*04:01 [2]; [5]): 4180 nM

LSFSYTAQF [ID12]
Kd (SLA-2*04:01 [2]; [6]): 73 nM

LTAALNRNRW [ID36]
Kd (SLA-2*04:01 [2]; [6]): 40 nM

MSWRYSCTRY [ID44]
Kd (SLA-2*04:01 [2]; [6]): 15 nM

MVNTTRVTY [ID29]
Kd (SLA-1*04:01 [1]; [5]): 206 nM

NISAVFQTYY [ID23]
Kd (SLA-1*04:01 [1]; [6]): 413 nM
Kd (SLA-2*04:01 [2]; [6]): 862 nM

QVYERGCRWY [ID7]
Kd (SLA-1*04:01 [1]; [6]): 682 nM
Kd (SLA-2*04:01 [2]; [5]): 209 nM

RSTPAIVRWF [ID3]
Stab. (h), measured stability (average dissociation half-life) (SLA-1*04:01 [3]): 0.1 h

RTAIGTPVY [ID17]
Kd (SLA-1*04:01 [1]; [6]): 57 nM
Kd (SLA-2*04:01 [2]; [5]): 385 nM

RTAPNEIAF [ID24]
Kd (SLA-1*04:01 [1]; [6]): 4 nM

RTILGTNNF [ID1]
Kd (SLA-1*04:01 [1]; [5]): 1030 nM

SSAFFLRYF [ID45]
Stab. (h), measured stability (average dissociation half-life) (SLA-2*04:01 [4]): 0.1 h

SSEGHLTSVY [ID34]
Kd (SLA-2*04:01 [2]; [5]): 1690 nM

TLSNYRRSY [ID15]
Stab. (h), measured stability (average dissociation half-life) (SLA-1*07:02): 0.3 h

TTMPSGFELY [ID43]
Kd (SLA-1*04:01 [1]; [6]): 576 nM
Kd (SLA-2*04:01 [2]; [5]): 1840 nM

WGVYSAIETW [ID48]
Kd (SLA-2*04:01 [2]; [6]): 21400 nM

YAQHMVLSY [ID2]
Kd (SLA-2*04:01 [2]; [6]): 60 nM

YSFPGPPFF [ID4]
Kd (SLA-1*04:01 [1]; [5]): 37 nM
